Test [1] concerns IRF-Lucia luciferase reporter (ISRE) in THP1-Dual cells. As to the kind of experiment: THP1-Dual IRF-Lucia luciferase reporter assay (ISRE activation). The class given is cell-based, human. The following applies: Homo sapiens, THP1-Dual, Human Reporter Cell Line THP1; read-out: THP1 IRF EC50. The gist of the method:
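Supernatant luminescence from the ISG54/ISRE-driven Lucia reporter was measured after 24 h exposure to 10 μM compound (LPS 313 ng/mL in control wells).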
A general note: A reporter such as luciferase makes a cellular process visible.

For test [2], the system named is IRF-Lucia luciferase reporter (ISRE) in J774-Dual cells. As to the kind of experiment: J774-Dual IRF-Lucia luciferase reporter assay (ISRE activation). The class given is cell-based, mouse. The following applies: for J774 IRF % activation at peak: Mouse Reporter Cell Line J774; for EC50: Mus musculus, J774, Mouse Reporter Cell Line J774, read-out: J774 IRF EC50. The gist of the method: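 Eight-point dose-response in J774-Dual mouse macrophage-like cells gave EC50, plus CC50 by in-plate CellTiter-Glo, and ISRE:NF-κB ratios. Cells plated 24 h at 37 °C, 5% CO2 without differentiation; supernatant Lucia luciferase and SEAP measured with QUANTI-Luc and QUANTI-Blue.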

The text below walks through data of patent US20220395500A1, “SMALL MOLECULE ACTIVATORS OF INTERFERON REGULATORY FACTOR 3 AND METHODS OF USE THEREOF” (Neuralexo, Inc., priority 2020, published 2022).

One may read the EC50 as the midpoint of the concentration-response curve.

On to `COCOc1ccc2oc(-c3ccc(C)c(NC(=O)c4ccc(OC)c([N+](=O)[O-])c4)c3)nc2c1` [ND-95, 4-methoxy-N-(5-(5-(methoxymethoxy)benzo[d]oxazol-2-yl)-2-methylphenyl)-3-nitrobenzamide], for which the EC50 came to 0.59 µM in test [1] and 4.1 µM in test [2]. Besides, the “J774 IRF % activation at peak” value in test [2] came to 98.11%.
The corresponding values for `COCOc1ccc2oc(-c3ccc(C)c([N+](=O)[O-])c3)nc2c1` [ND-96] are roughly 4.1 µM, 18.9 µM and 5.389%.
